{"source": "patent US20200138804A1", "about": "“METHODS FOR TREATING CANCER” (X4 Pharmaceuticals, Inc., priority 2017, published 2020)", "key": {"[1]": {"system": "advanced clear-cell renal cell carcinoma", "settings": "nivolumab 3 mg/kg IV every two weeks or everolimus 10 mg orally daily; P<0.001; cited from earlier work"}, "[2]": {"assay": "Solubility of X4P-001 as a function of pH", "format": "physicochemical"}, "[3]": {"settings": "Phase 1 and 2a trials, oral; cited from earlier work"}, "in vivo": {"assay": "in vivo", "protocol": "In certain embodiments, the dosage composition may be provided twice a day in divided dosage, approximately 12 hours apart. In other embodiments, the dosage composition may be provided once daily. […] Dosage for oral administration may be from about 100 mg to about 1200 mg once or twice per day."}, "[4]": {"system": "tumor infiltrating lymphocytes and MDSC in MC38 tumors", "assay": "Flow cytometry of Day 8 tumor samples, MC38 model (Groups 5-8)", "format": "in vivo, mouse", "source_text": "On Day 8, tumor samples from Groups 5-8 are obtained and divided into three parts. The first part is process to single cells by flow cytometry; second part is preserved by snap freeze; and the third part is preserved as formalin-fixed, paraffin-embedded (FFPE) blocks for IHC analysis of biomarkers.\nSamples subjected to flow cytometry are sorted into the following cell types:"}, "[5]": {"system": "murine models of melanoma, renal cell carcinoma, and ovarian cancer", "settings": "including decreased metastasis and increased overall survival; cited from earlier work"}, "[6]": {"system": "intra-tumoral CD8+ activated T-cells and FoxP3+ Tregs", "assay": "Immunohistochemical analysis of intra-tumor T-cell infiltrates in a melanoma patient before and after X4P-001", "format": "in vivo, human", "protocol": "Intra-tumoral tissue samples were obtained from a patient with melanoma prior to treatment (Day 1), and after three (3) weeks of treatment with CXCR4 inhibitor […]-001 (200 mg BID, oral) (Week 4). Samples were stained for CD8+, indicative of activated T-cells, and FoxP3+, indicative of immunosuppressive regulator T-cells (Tregs). The tables below indicate the total counts and density per square millimeter (mm^2) of CD8+ activated T-cells and FoxP3+ Tregs, as well as the ratio of CD8+ activated T-cells:FoxP3+ Tregs per mm^2 at day 1 and after 3 weeks of treatment."}, "[7]": {"settings": "subcutaneous injection; cited from earlier work"}}, "note": "“Also recorded” adds a separate entry of the source. Read-outs that look alike come from different tables or passages of the source.", "data": [{"compound": "CO[C@H]1C[C@@H]2CC[C@@H](C)[C@@](O)(O2)C(=O)C(=O)N2CCCC[C@H]2C(=O)O[C@H]([C@H](C)C[C@@H]2CC[C@@H](OCCO)[C@H](OC)C2)CC(=O)[C@H](C)/C=C(\\C)[C@@H](O)[C@@H](OC)C(=O)[C@H](C)C[C@H](C)/C=C/C=C/C=C/1C", "note": "[everolimus]", "values": [{"measurement": "objective response rate", "setting": "[1]", "value": 5, "unit": "%"}]}, {"compound": "NCCCCN(Cc1nc2ccccc2[nH]1)[C@H]1CCCc2cccnc21", "note": "[X4P-001]", "values": [{"measurement": "solubility", "setting": "[2]; aqueous buffer, pH range 3.0 to 8.0 (freely soluble)", "value": "> 100", "unit": "mg/mL"}, {"measurement": "Solubility in water", "setting": "[2]; water", "value": "only slightly soluble"}, {"measurement": "pharmacodynamic activity: changes in circulating white blood cells (WBCs)", "setting": "[3]", "value": "dose- and concentration-related changes in circulating white blood cells"}, {"measurement": "volume of distribution (VL)", "setting": "[3]", "value": "high volume of distribution"}, {"measurement": "terminal half-life", "setting": "in vivo", "value": "approximately 14.5 hrs"}, {"measurement": "half-life", "setting": "in vivo; terminal half-life", "value": "12 to 24", "unit": "h"}, {"measurement": "Treg, Percent of CD45^+ Population (Mean ± SEM)", "setting": "[4]; control 0.5 ± 0.08", "value": "0.49 ± 0.14", "unit": "%"}, {"measurement": "CD4^+, Percent of CD45^+ Population (Mean ± SEM)", "setting": "[4]; control 1.21 ± 0.29", "value": "1.3 ± 0.51", "unit": "%"}, {"measurement": "CD8^+, Percent of CD45^+ Population (Mean ± SEM)", "setting": "[4]; control 3.91 ± 0.69", "value": "6.11 ± 0.66", "unit": "%"}, {"measurement": "CD8^+/Treg", "setting": "[4]; control 7.82", "value": 12.47}, {"measurement": "MDSC, Percent of CD45^+ Population (Mean ± SEM)", "setting": "[4]; control 28.97 ± 3.6", "value": "16.2 ± 0.67", "unit": "%"}, {"measurement": "effect on CD8^+ T cells", "setting": "[4]; versus control", "value": "increasing CD8^+ T cells"}, {"measurement": "effect on MDSCs", "setting": "[4]; versus control", "value": "significant effect on reducing MDSCs"}, {"measurement": "anti-tumor activity", "setting": "[5]", "value": "significant anti-tumor activity"}, {"measurement": "Total FoxP3+/mm^2", "setting": "[6]; Week 4, after 3 weeks of 200 mg BID oral, Day 1 before treatment 24.5868158", "value": "25.2 /mm^2"}, {"measurement": "Total CD8+/mm^2", "setting": "[6]; Week 4, after 3 weeks of 200 mg BID oral, Day 1 before treatment 56.87565442", "value": "121.4 /mm^2"}, {"measurement": "Total FoxP3+", "setting": "[6]; Week 4, after 3 weeks of 200 mg BID oral, Day 1 before treatment 313", "value": 337}, {"measurement": "Total CD8+", "setting": "[6]; Week 4, after 3 weeks of 200 mg BID oral, Day 1 before treatment 720", "value": 1685}, {"measurement": "intra-tumoral CD8+ T-cell counts", "setting": "[6]; Week 4 versus Day 1, 200 mg BID oral, FIG. 3", "value": "marked increases in CD8+ T-cells; also recorded: marked increase"}]}, {"compound": "c1cc(CN2CCCNCCNCCCNCC2)ccc1CN1CCCNCCNCCCNCC1", "note": "[Plerixafor, reference compound]", "values": [{"measurement": "half-life", "setting": "[7]", "value": "very short half-life"}, {"measurement": "anti-tumor activity", "setting": "[5]", "value": "significant anti-tumor activity"}]}, {"compound": "nivolumab: fully human IgG4 monoclonal antibody binding the PD-1 receptor", "values": [{"measurement": "objective response rate", "setting": "[1]", "value": 25, "unit": "%"}]}]}
